Results taken from US9119879B2, “Oral care compositions comprising a quinone and a further antimicrobial agent” (Colgate-Palmolive Company, priority 2010, dated 2015).

Legend:
[1] = system: IL-1b; test: Anti-inflammatory efficacy in cells triggered by HKPG: IL-1b level; format: cell-based, human
Method: (§1) The anti-inflammatory efficacy of TBHQ in neat solution against several inflammation cytokines was evaluated. Human fibroblast (HEPM) cells or human macrophage (U937) cells were used in these tests. Inflammation was triggered by Heat Killed P. gingivalis (HKPG). TBHQ at various doses was co-incubated with cells treated with HKPG, and the levels of inflammatory markers were observed.

[2] = system: PGE2; test: Anti-inflammatory efficacy in cells triggered by Heat Killed P. gingivalis (HKPG): PGE2 level; format: cell-based, human
Method: as §1

[3] = system: P. gingivalis; test: Minimum inhibitory concentration (MIC) of TBHQ; format: cell-based
[4] = system: F. nucleatum; test: Minimum inhibitory concentration (MIC) of TBHQ; format: cell-based
[5] = system: common pathogens; test: Antimicrobial activity relative to known antimicrobial agents; format: cell-based
[6] = system: A. viscosus biofilm; test: Single species A. viscosus biofilm assay (Biofilm Eradication Concentration, BEC50); format: cell-based; conditions: for BEC50 of Active Alone: lowest concentration with greater than 50% reduction in biofilm biomass relative to control, TBHQ tested at 50 ppm; for BEC50 of Active + 50 ppm TBHQ: active combined with 50 ppm TBHQ
Method: TBHQ and a series of actives were tested in single species of A. viscosus biofilm assay.

[7] = system: TNF-α; test: Anti-inflammatory efficacy in cells triggered by HKPG: TNF-α level; format: cell-based, human
Method: as §1

[8] = system: A. viscosus; test: Minimum inhibitory concentration (MIC) of TBHQ; format: cell-based
[9] = system: IL-6; test: Anti-inflammatory efficacy in cells triggered by HKPG: IL-6 level; format: cell-based, human
Method: as §1

[10] = TBHQ 10 ppm, HKPG-treated cells
[11] = TBHQ 100 ppm, HKPG-treated cells

Which IL-1b ([1]; TBHQ 1 ppm, HKPG-treated cells (HKPG alone 85, untreated 63)) does the source give for CC(C)(C)c1cc(O)ccc1O [TBHQ, 2-t-butyl-p-hydroquinone] here?
Its IL-1b is 88 pg/mL.

And the IL-1b [1, 10]?
The IL-1b was 55 pg/mL.

And the IL-1b [1, 11]?
The IL-1b was 29 pg/mL.

And the PGE2 level ([2]; TBHQ 0.9 ppm, HKPG-treated cells)?
Its PGE2 level is 1323 pg/mL.

And the PGE2 level ([2]; TBHQ 1.8 ppm, HKPG-treated cells)?
The PGE2 level was 1378 pg/mL.

What about the PGE2 level ([2]; TBHQ 3.9 ppm, HKPG-treated cells) of the same compound?
The PGE2 level was 1327 pg/mL.

And the PGE2 level ([2]; TBHQ 7.8 ppm, HKPG-treated cells)?
Its PGE2 level is 1563 pg/mL.

What about the PGE2 level ([2]; TBHQ 15.6 ppm, HKPG-treated cells) of the same compound?
The PGE2 level was 1249 pg/mL.

What about the PGE2 level ([2]; TBHQ 31.2 ppm, HKPG-treated cells) of the same compound?
Its PGE2 level is 1124 pg/mL.

What about the PGE2 level ([2]; TBHQ 62.5 ppm, co-incubated with HKPG-treated cells (HKPG alone 1743, untreated 1579)) of the same compound?
Its PGE2 level is 764 pg/mL.

And the MIC [3]?
Its MIC is 62.5 ppm.

What about the MIC [4] of the same compound?
The MIC was 62.5 ppm.

What about the “antimicrobial activity, times lower than known antimicrobial agent” value ([5]; relative to cetylpyridinium chloride (CPC)) of the same compound?
The value was 60 times.

And the “antimicrobial activity, times lower than known antimicrobial agent” value ([5]; relative to triclosan)?
Its value is 20 times.

What about the “reduction in biofilm biomass” value ([6]; TBHQ alone at 12.5 ppm) of the same compound?
The value was at most 50%.

What about the “reduction in biofilm biomass” value ([6]; TBHQ alone at 50 ppm) of the same compound?
Its value is at most 50%.

And the BEC50 ([6]; Table 3, TBHQ at 12.5 ppm, alone or with zinc oxide slurry)?
The BEC50 was “Not measurable”.

What about the “BEC50 of Active Alone” value [6] of the same compound?
The value was “Not measurable”.

What about the TNF-α ([7]; TBHQ 1 ppm, HKPG-treated cells (HKPG alone 194, untreated 15)) of the same compound?
Its TNF-α is 198 pg/mL.

What about the TNF-α [7, 10] of the same compound?
Its TNF-α is 68 pg/mL.

And the TNF-α [7, 11]?
Its TNF-α is 7 pg/mL.

And the MIC [8]?
The MIC was 62.5 ppm.

And the IL-6 ([9]; TBHQ 1 ppm, HKPG-treated cells (HKPG alone 1753, untreated 42))?
Its IL-6 is 405 pg/mL.

What about the IL-6 [9, 10] of the same compound?
The IL-6 was 100 pg/mL.

What about the IL-6 [9, 11] of the same compound?
The IL-6 was 23 pg/mL.

With Oc1cc(Cl)ccc1Oc1ccc(Cl)cc1Cl [Triclosan, reference compound] as the compound, how does the “BEC50 of Active + 50 ppm TBHQ” value [6] read?
Its value is under 0.03 ppm.

What about the “BEC50 of Active Alone” value [6] of the same compound?
Its value is 0.49 ppm.

With COc1cc(CCC(=O)CC(=O)CCc2ccc(O)c(OC)c2)ccc1O [Tetra-hydrocurcumin] as the compound, how does the “BEC50 of Active + 50 ppm TBHQ” value [6] read?
The value was 1.22 ppm.

What about the “BEC50 of Active Alone” value [6] of the same compound?
Its value is over 2500 ppm.

With O=C([O-])CC(O)(CC(=O)[O-])C(=O)[O-].O=C([O-])CC(O)(CC(=O)[O-])C(=O)[O-].[Zn+2].[Zn+2].[Zn+2] [Zinc Citrate] as the compound, how does the “BEC50 of Active + 50 ppm TBHQ” value [6] read?
Its value is 19.5 ppm.

What about the “BEC50 of Active Alone” value [6] of the same compound?
Its value is 78.1 ppm.

How did the “BEC50 of Active + 50 ppm TBHQ” value [6] turn out when [Cl][Sn][Cl] [Stannous chloride] was run?
Its value is 39 ppm.

And the “BEC50 of Active Alone” value [6]?
Its value is 156.3 ppm.
